Values quoted from earlier work in US20160030582A1 (MAYNE PHARMA INTERNATIONAL PTY. LTD., priority 2012, published 2016).
Where two headings read alike, the source gives them in different places.

Legend:
[1] = test system: typical infecting organisms for specific superficial and systemic mycoses; set-up: MIC90: unit not given here; conditions: for MIC RANGE: in µg/mL
[2] = Aspergillosis, A. flavus complex
[3] = Aspergillosis, A. fumigatus complex
[4] = Aspergillosis, A. nidulans complex
[5] = Aspergillosis, A. niger complex
[6] = Aspergillosis, A. terreus complex
[7] = tinea capitis, Microsporum sp. (audounti, canis, gypseum, ferrugineum et al.)
[8] = tinea capitis, Trichophyton sp. (tonsurans violaceum, soudanese, schoenleinii, mentagrophytes, verrucossum, et al.)
[9] = tinea corporis, Epidermophyton floccosum
[10] = tinea corporis, Microsporum sp. (canis, gypseum, et al.)
[11] = tinea corporis, Trichophyton sp. (rubrum, tonsurans interdigitale, mentagrophytes, concentricim, violaceum et al.)
[12] = tinea cruris, Epidermophyton floccosum
[13] = tinea cruris, Microsporum sp. (canis, et al.)
[14] = tinea cruris, Trichophyton sp. (rubrum, tonsurans interdigitale, mentagrophytes, et al.)
[15] = tinea manuum, Epidermophyton floccosum
[16] = tinea manuum, Trichophyton sp. (rubrum, interdigitale, mentagrophytes.)
[17] = tinea pedis, Epidermophyton floccosum
[18] = tinea pedis, Microsporum sp. (canis, gypseum, et al.)
[19] = tinea pedis, Trichophyton sp. (rubrum, tonsurans interdigitale, mentagrophytes, et al.)
[20] = tinea unguium, Epidermophyton floccosum
[21] = tinea unguium, Microsporum sp. (canis, et al.)
[22] = tinea unguium, Trichophyton sp. (rubrum, tonsurans interdigitale, mentagrophytes, et al.)

CCC(C)n1ncn(-c2ccc(N3CCN(c4ccc(OCC5COC(Cn6cncn6)(c6ccc(Cl)cc6Cl)O5)cc4)CC3)cc2)c1=O (centres unmarked) [itraconazole]
expected apparent plasma terminal elimination half-life (t½) (basis for sampling schedule of Example 12): 22 h | reduction of Cmax and AUC in the fasting state (compared to administration after a light meal): 50-70% | excreted unchanged in the feces (oral dose): 3-18% | MIC90 [1]: MIC90 = 0.06 | MIC90 [1, 2]: MIC90 = 0.5 | MIC RANGE [1, 2]: 0.03-8 | MIC90 [1, 3]: MIC90 = 0.5 | MIC RANGE [1, 3]: 0.03-16 | MIC90 [1, 4]: MIC90 = 0.25 | MIC RANGE [1, 4]: 0.03-8 | MIC90 [1, 5]: MIC90 = 0.5 | MIC RANGE [1, 5]: 0.03-8 | MIC90 [1, 6]: MIC90 = 0.25 | MIC RANGE [1, 6]: 0.03-1 | MIC90 ([1]; Candidiasis, C. albicans): MIC90 = 0.125 | MIC RANGE ([1]; Candidiasis, C. albicans): 0.008-8 | MIC RANGE ([1]; Candidiasis, C. glabrata): 0.008-16 | MIC RANGE ([1]; Candidiasis, C. kruset): 0.008-8 | MIC RANGE ([1]; Candidiasis, C. tropicalis): 0.03-8 | MIC RANGE ([1]; Pityriasis versicolor, Malassezia sp. (florfur, globosa, obtuse, sympodialis etc).): 0.3-16 | MIC RANGE [1]: 0.03-8 | MIC90 [1, 7]: MIC90 = 0.25-0.5 | MIC RANGE [1, 7]: 0.01-4 | MIC90 [1, 8]: MIC90 = 0.25-0.5 | MIC RANGE [1, 8]: 0.01-8 | MIC90 [1, 9]: MIC90 = 0.125 | MIC RANGE [1, 9]: 0.01-8 | MIC90 [1, 10]: MIC90 = 0.25-0.5 | MIC RANGE [1, 10]: 0.01-4 | MIC90 [1, 11]: MIC90 = 0.25-0.5 | MIC RANGE [1, 11]: 0.01-8 | MIC90 [1, 12]: MIC90 = 0.125 | MIC RANGE [1, 12]: 0.01-8 | MIC90 [1, 13]: MIC90 = 0.25-0.5 | MIC RANGE [1, 13]: 0.01-4 | MIC90 [1, 14]: MIC90 = 0.25-0.5 | MIC RANGE [1, 14]: 0.01-8 | MIC90 [1, 15]: MIC90 = 0.125 | MIC RANGE [1, 15]: 0.01-8 | MIC90 [1, 16]: MIC90 = 0.25-0.5 | MIC RANGE [1, 16]: 0.01-8 | MIC90 [1, 17]: MIC90 = 0.125 | MIC RANGE [1, 17]: 0.01-8 | MIC90 [1, 18]: MIC90 = 0.25-0.5 | MIC RANGE [1, 18]: 0.01-4 | MIC90 [1, 19]: MIC90 = 0.25-0.5 | MIC RANGE [1, 19]: 0.01-8 | MIC90 [1, 20]: MIC90 = 0.125 | MIC RANGE [1, 20]: 0.01-8 | MIC90 [1, 21]: MIC90 = 0.25-0.5 | MIC RANGE [1, 21]: 0.01-4 | MIC90 [1, 22]: MIC90 = 0.25-0.5 | MIC RANGE [1, 22]: 0.01-8
